Assay results reported in patent US20160101067A1, “SUPRAMOLECULAR COMPLEXES OF POLYANIONIC POLYMERS AND SPERMIDINE IN TISSUE MAINTENANCE AND REPAIR” (TIXUPHARMA, priority 2013, published 2016).

Test system: human fibroblasts (ATCC-CRL-2703)
Assay: Fibroblast proliferation, MTT coloration
Type: cell-based
Experimental: These supramolecular complexes were tested to evaluate the stimulatory activity on human fibroblasts (ATCC-CRL-2703). […] Cells were exposed to each complex for 24 and 48 hours (medium was replaced every 24 h) at 37° C. and 5% CO2. At the end of incubation period, MTT coloration was performed in order to evaluate cell viability and the increasing proliferating rate compared to untreated control cells. For each determination 6 tests were carried out. After exposure, cells were washed with […] of PBS, then 200 μl of MTT-medium are added to each culture well and incubated for 4 hours at 37° C. and 5% CO2. MTT medium is then removed and 200 μl of MTT dissolving solution (10% Triton X-100 and 0.1 N HCl in dry isopropanol) were added. After shaking on a rotating plate for 20-30′ to dissolve crystals and homogenize the solution, absorbance was read at 570 nm; background reading at 690 nm.

## NCCCCNCCCN [Spermidine (Spd) 3HCl, N-(3-aminopropyl)-1,4-butanediamine]
Spd 3HCl 10 nM
  % Proliferative increase at 24 h: 31.86%
  % Proliferative increase at 48 h: 35.96%
Spd 3HCl 100 nM
  % Proliferative increase at 24 h: 26.27%
  % Proliferative increase at 48 h: 29.39%
Spd 3HCl 1 μM
  % Proliferative increase at 24 h: 7.55%
  % Proliferative increase at 48 h: 13.01%
Spd 3HCl 10 μM
  % Proliferative increase at 24 h: 2.3%
  % Proliferative increase at 48 h: 8.48%
Spd 3HCl 100 μM
  % Proliferative increase at 24 h: 1.31%
  % Proliferative increase at 48 h: 4.09%
Spd 3HCl 1 mM
  % Proliferative increase at 24 h: −0.16%
  % Proliferative increase at 48 h: −3.22%
Spd 3HCl 10 mM
  % Proliferative increase at 24 h: −9.85%
  % Proliferative increase at 48 h: −9.5%
Mmolar concentration
  effect on fibroblast proliferation at mmolar concentration: suppressive effect
Serial dilution
  pattern of the proliferative effect over concentration: bimodal pattern
μmolar or nmolar levels
  effect on fibroblast proliferation at μmolar or nmolar levels: positive effect
